Assay results: patent US6476076B1 (priority 1999, dated 2002)
Read-outs that look alike come from different tables or passages of the source.

Legend:
[1] = target: T1, vanilloid receptor (rat spinal cord membrane preparations) (Rattus norvegicus, UniProt O35433); experiment: biochemical; type: binding
T1 construct: determined on membrane preparations from rat spinal cord; from tissue; host or cells: rat spinal cord membranes

[2] = tested on: PBQ-induced writhing in ICR mice; experiment: animal or person; type: in vivo, mouse; conditions: for Relative Potency (Writhing Test) / Writhing Test ED50: mouse, in vivo; for Writhing Test ED50 / ED50: ip; for ED50: Mus musculus, read-out: Writhing Test ED50
[3] = target: T2, CAP-activated channels in cultured neonatal rat dorsal root ganglion (DRG) neurons (Rattus norvegicus, UniProt O35433); type: cell-based; parameters: key: + = CAP; ++ = 10 CAP; +++ = 100 CAP
T2 construct: extracellular application of the compounds to cultured neonatal rat dorsal root ganglion (DRG) neurons; endogenous in cells; host or cells: primary cultured DRG neurons from 1 or 2 day old neonatal rats

[4] = tested on: TPA-induced ear edema in ICR mice; conditions: mouse, in vivo
[5] = tested on: rat eye (eye-wiping response); conditions: in vivo

T2 sequence (O35433 whole entry): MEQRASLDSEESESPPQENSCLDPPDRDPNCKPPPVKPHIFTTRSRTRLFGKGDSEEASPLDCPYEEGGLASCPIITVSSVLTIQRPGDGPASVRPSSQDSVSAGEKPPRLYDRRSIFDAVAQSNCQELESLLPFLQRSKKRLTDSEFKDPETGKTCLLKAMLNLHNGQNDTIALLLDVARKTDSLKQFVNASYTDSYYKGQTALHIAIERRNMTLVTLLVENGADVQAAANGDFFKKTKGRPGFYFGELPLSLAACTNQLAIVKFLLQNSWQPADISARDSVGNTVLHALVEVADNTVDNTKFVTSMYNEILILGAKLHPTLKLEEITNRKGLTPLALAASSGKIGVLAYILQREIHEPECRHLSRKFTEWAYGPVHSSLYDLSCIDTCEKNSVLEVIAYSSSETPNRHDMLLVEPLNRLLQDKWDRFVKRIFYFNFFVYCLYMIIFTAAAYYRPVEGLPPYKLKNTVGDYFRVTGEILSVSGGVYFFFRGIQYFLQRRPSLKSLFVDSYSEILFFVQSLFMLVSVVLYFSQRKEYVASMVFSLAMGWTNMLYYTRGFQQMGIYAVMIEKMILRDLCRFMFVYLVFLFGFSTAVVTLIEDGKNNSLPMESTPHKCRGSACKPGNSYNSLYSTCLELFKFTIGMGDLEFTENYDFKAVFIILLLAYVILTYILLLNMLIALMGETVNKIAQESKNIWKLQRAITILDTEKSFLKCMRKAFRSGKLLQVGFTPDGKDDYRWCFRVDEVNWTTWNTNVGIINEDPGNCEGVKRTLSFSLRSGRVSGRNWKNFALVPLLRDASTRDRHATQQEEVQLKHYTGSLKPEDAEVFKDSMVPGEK
T1 sequence (O35433 whole entry): as above

| Compound | Relative Potency (Writhing Test) [2] | Writhing Test ED50 [2] [mg/kg] | Activations [3] | Ear Edema Assay ID50 [4] [μg/ear] | Relative Potency (Ear Edema Assay) [4] | Ki [1] [nM] | other results |
| --- | --- | --- | --- | --- | --- | --- | --- |
| 2-(3,4-Dimethylbenzyl)-3-{[(4-hydroxy-3-methoxybenzyl)amino]carbothioyl}propyl 3,4-Dimethylbenzoate [7b-VI] | 150 | 0.002 | +++ | 50 | 0.06 | – | Ki ([1]; read-out: Affinities (Ki)): 184 nM |
| 2-(3,4-Dimethylbenzyl)-3-{[(4-hydroxy-3-methoxybenzyl)amino]carbothioyl}propyl Pivalate [7b-I] | 600 | 0.0005 | ++ | 18 | 0.17 | – | MPP: moderate pain-producing potency [5]: 0.002%; RPP: relative pain-producing potency [5]: 15; times more potent than CAP (receptor binding) [1]: ca. 280 times |
| 2-(3,4-Dimethylbenzyl)-3-{[(4-hydroxy-3-methoxybenzyl)amino]carbothioyl}propyl benzoate [7b-V] | 43 | 0.007 | ++ | 50 | 0.06 | – | Ki ([1]; read-out: Affinities (Ki)): 409 nM |
| 2-(4-Chlorobenzyl)-3-{[(4-hydroxy-3-methoxybenzyl)amino]carbothioyl}propyl Benzoate [7c-V] | 25 | 0.012 | ++ | 17 | 0.18 | – | – |
| 2-(4-Chlorobenzyl)-3-{[(4-hydroxy-3-methoxybenzyl)amino]carbothioyl}propyl Pivalate [7c-I] | 60 | 0.005 | ++ | 22 | 0.14 | – | Ki ([1]; read-out: Affinities (Ki)): 54.4 nM |
| 2-(4-t-Butylbenzyl)-3-{[(4-hydroxy-3-methoxybenzyl)amino]carbothioyl}propyl Benzoate [7d-V] | 200 | 0.0015 | ++ | 30 | 0.1 | – | Ki ([1]; read-out: Affinities (Ki)): 60.2 nM |
| 2-Benzyl-3-{[(4-hydroxy-3-methoxybenzyl)amino]carbothioyl}propyl Benzoate [7a-V] | 15 | 0.02 | ++ | 20 | 0.15 | – | % Reduction of response to 0.001% capsaicin [5]: 0 (0.1) % |
| 2-Benzyl-3-{[(4-hydroxy-3-methoxybenzyl)amino]carbothioyl}propyl Hexanoate [7a-III] | 60 | 0.005 | ++ | – | – | – | Ki ([1]; read-out: Affinities (Ki)): 632 nM |
| 2-Benzyl-3-{[(4-hydroxy-3-methoxybenzyl)amino]carbothioyl}propyl Pivalate [7a-I] | 150 | 0.002 | +++ | 25 | 0.12 | – | – |
| 2-Benzyl-3-{[(4-hydroxy-3-methoxybenzyl)amino]carbothioyl}propyl Stearate [7a-IV] | 15 | 0.02 | + | – | – | – | Ki ([1]; read-out: Affinities (Ki)): 1870 nM |
| COc1cc(CNC(=S)NCC(COC(=O)C(C)C)Cc2ccccc2)ccc1O (stereo not drawn) [7a-II, 2-Benzyl-3-{[(4-hydroxy-3-methoxybenzyl)amino]carbothioyl}propyl 2-Methyl Propanoate] | 20 | – | +++ | – | – | 133 | ED50 [2]: 0.015 mg/kg |
| COCOc1ccc(CNC(=S)NCC(COC(=O)C(C)(C)C)Cc2ccc(C)c(C)c2)cc1OC (stereo not drawn) [7b-Ia] | – | – | – | – | – | 876 | – |
| COc1cc(CNC(=S)NCC(COCc2ccccc2)Cc2ccccc2)ccc1O (stereo not drawn) [9a, N-[2-Benzyl-3-(benzyloxy)propyl]-N′-(4-hydroxy-3-methoxybenzyl)thiourea] | – | – | ++ | – | – | 148 | – |
| COc1cc(CNC(=S)NCC(COCc2ccccc2)Cc2ccc(Cl)cc2)ccc1O (stereo not drawn) [9c, N-[3-Benzyloxy-2-(4-chlorobenzyl)propyl]-N′-(4-hydroxy-3-methoxybenzyl)thiourea] | – | – | ++ | – | – | 659 | – |
| COc1cc(CNC(=S)NC[C@H](COC(=O)C(C)(C)C)Cc2ccccc2)ccc1O [(R)-7a-I] | 38 | – | +++ | – | – | 18.4 | ED50 [2]: 0.008 mg/kg |
| CC(=O)Oc1ccccc1C(=O)O [Aspirin, reference compound] | 0.086 | – | – | – | – | – | ED50 [2]: 3.5 mg/kg |
| COc1ccc2c(c1)c(CC(=O)O)c(C)n2C(=O)c1ccc(Cl)cc1 [Indomethacin, reference compound] | 0.75 | – | – | – | – | – | ED50 [2]: 0.4 mg/kg |
| CN1CC[C@]23c4c5ccc(O)c4O[C@H]2[C@@H](O)C=C[C@H]3[C@H]1C5 [Morphine, reference compound] | 0.3 | – | – | – | – | – | ED50 [2]: 1 mg/kg |
| C=C(C)[C@]12C[C@@H](C)[C@@]34O[C@](Cc5ccccc5)(O[C@@H]1[C@@H]3C=C(COC(=O)Cc1ccc(O)c(OC)c1)C[C@]1(O)C(=O)C(C)=C[C@@H]41)O2 [RTX, Resiniferatoxin, reference compound] | 30,000 | – | – | 0.002 | 1,500 | 0.023 | MPP: moderate pain-producing potency [5]: 0.0001%; RPP: relative pain-producing potency [5]: 300; pungency, fold more potent than CAP [5]: 3 fold |
| COCOc1ccc(CNC(=S)NCC(COC(=O)C(C)(C)C)Cc2ccccc2)cc1OC (stereo not drawn) [compound 10] | – | – | ++ | – | – | 146 | – |
| (S)-2-Benzyl-3-{[(4-hydroxy-3-methoxybenzyl)amino]carbothioyl}propyl Pivalate [(S)-7a-I] | 33 | 0.009 | ++ | – | – | – | – |
